78 compounds from PubChem BioAssay AID1117328 (Cheminformatics & Chemogenomics Research Group (CCRG), …, 2015) can be followed below.

Each structure is given as a SMILES string. Calls of active or inactive are those of the source. How the calls were made is not given here.

This experiment has as its target Ribosomal protein S6 kinase beta-1 (Homo sapiens) (UniProt P23443). The experiment is described as follows: inhibition of human S6K1 enzyme activity – biochemical, LANCE Ultra TR-FRET (AID 1117328). As to conditions: LANCE Ultra TR-FRET kinase assay, p70S6K1; at 20 µM (top of the series). Background: TR-FRET usually uses a lanthanide donor and a delayed reading to cut background.

The term inhibition denotes the drop in the measured response relative to a control, in per cent.

Ribosomal protein S6 kinase beta-1 (Homo sapiens), sequence (P23443 whole entry, looked up): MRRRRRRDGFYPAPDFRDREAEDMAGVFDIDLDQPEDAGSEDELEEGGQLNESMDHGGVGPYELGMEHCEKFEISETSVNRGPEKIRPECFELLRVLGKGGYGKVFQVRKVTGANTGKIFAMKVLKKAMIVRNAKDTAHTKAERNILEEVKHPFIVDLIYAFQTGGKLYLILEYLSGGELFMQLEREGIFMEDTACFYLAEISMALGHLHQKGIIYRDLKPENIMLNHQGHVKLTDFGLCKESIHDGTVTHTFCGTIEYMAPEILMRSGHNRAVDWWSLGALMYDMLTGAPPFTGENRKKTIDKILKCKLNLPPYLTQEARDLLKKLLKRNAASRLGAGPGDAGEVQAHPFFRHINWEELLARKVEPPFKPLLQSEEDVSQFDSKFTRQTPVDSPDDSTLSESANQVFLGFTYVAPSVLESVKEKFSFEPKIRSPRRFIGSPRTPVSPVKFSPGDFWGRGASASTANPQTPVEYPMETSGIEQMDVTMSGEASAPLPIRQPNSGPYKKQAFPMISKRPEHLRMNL

In the case of `COc1ccc(-c2ccc3cc(C(=O)O)ccc3c2)cc1C12CC3CC(CC(C3)C1)C2`, the inhibition is 29% (inactive).
Take `COc1cc(NCc2ccc3nc(N)nc(N)c3c2C)cc(OC)c1OC`: the inhibition was 38% (inactive).
For the compound `O=C(O)c1ccc(-n2nc(-c3ccccc3O)nc2-c2ccccc2O)cc1`, the inhibition was 0.21% (inactive).
In the case of `Cc1cc2c(C(C)C)c(O)c(O)c(C=O)c2c(O)c1-c1c(C)cc2c(C(C)C)c(O)c(O)c(C=O)c2c1O`, the inhibition is -7.01% (inactive).
Turning to `O=c1[nH]c(=O)n([C@H]2C[C@H](O)[C@@H](CO)O2)cc1F`, the inhibition is -6.04% (inactive).
In the case of `CCc1nc(N)nc(N)c1-c1ccc(Cl)cc1` it was 11.7% (inactive); in that of `CC(=O)[C@]1(O)Cc2c(O)c3c(c(O)c2[C@@H](O[C@H]2C[C@H](N)[C@H](O)[C@H](C)O2)C1)C(=O)c1ccccc1C3=O`, -128% (inactive).
On to `COC(=O)Nc1nc2ccc(C(=O)c3ccccc3)cc2[nH]1`, for which the inhibition was -18.7% (inactive).
With `CC[C@]1(O)C[C@H]2CN(CCc3c([nH]c4ccccc34)[C@@](C(=O)OC)(c3cc4c(cc3OC)N(C=O)[C@H]3[C@@](O)(C(=O)OC)[C@H](OC(C)=O)[C@]5(CC)C=CCN6CC[C@]43[C@@H]65)C2)C1`, the inhibition was 5.42% (inactive).
On to `Cc1ccc(Nc2nccc(N(C)c3ccc4c(C)n(C)nc4c3)n2)cc1S(N)(=O)=O`, for which the inhibition is 5.82% (inactive).
Turning to `C[n+]1c2cc(N)ccc2cc2ccc(N)cc21` (tested in a mixture with another compound), the inhibition was 65.3%.
`[O-][n+]1ccccc1SSc1cccc[n+]1[O-]`: the inhibition is -10.6% (inactive).
With `Cc1nc2ccc(CN(C)c3ccc(C(=O)N[C@@H](CCC(=O)O)C(=O)O)s3)cc2c(=O)[nH]1`, the inhibition is 26.6% (inactive).
For `C[C@@]12C(=O)OC(=O)[C@]1(C)C1CCC2O1`, the inhibition is 6.38% (inactive).
On to `CN(C)c1ccc2nc3ccc(=[N+](C)C)cc-3sc2c1`, for which the inhibition was -350% (inactive).
For the compound `Nc1ccc2cc3ccc(N)cc3nc2c1`, the inhibition is -285% (inactive).
As to `Nc1nc(=S)c2[nH]cnc2[nH]1`, the inhibition is 3.34% (inactive).
In the case of `CCN(CC)CCNc1ccc(CO)c2sc3ccccc3c(=O)c12` it was 37.2%.
In the case of `CCCSc1ccc2nc(NC(=O)OC)[nH]c2c1` it was -2.9% (inactive); in that of `O=[N+]([O-])c1ccc(O)c2ncccc12`, 37.6% (inactive).
In the case of `CCN(CC)CCOc1ccc(/C(=C(\Cl)c2ccccc2)c2ccccc2)cc1` it was 7.41% (inactive); in that of `COC(=O)Nc1nc2ccc(Sc3ccccc3)cc2[nH]1`, -5.93% (inactive); in that of `CCCCc1oc2ccccc2c1C(=O)c1cc(I)c(OCCN(CC)CC)c(I)c1`, -4.08% (inactive).
As to `CC(C)(C)C1CCC(CC2=C(O)c3ccccc3C(=O)C2=O)CC1` (stereo not drawn), the inhibition is -2.09% (inactive).
Turning to `O=c1c(-c2ccccc2)c1-c1ccccc1`, the inhibition was 5.11% (inactive).
Turning to `O=C(Nc1ccc([N+](=O)[O-])cc1Cl)c1cc(Cl)ccc1O`, the inhibition is 49.9% (inactive).
In the case of `CCCCCCCCCCCCCCCCCCNC(=O)OC1CCN(C(=O)OC[C@H](COC(=O)N(Cc2cccc[n+]2CC)C(=O)c2ccccc2OC)OC)CC1` it was -363% (inactive); in that of `CCCCCCCCCCCCCCCC[n+]1ccccc1`, -110% (inactive).
On to `O=c1[nH]c(=O)n([C@H]2C[C@H](O)[C@@H](CO)O2)cc1C(F)(F)F`, for which the inhibition is 5.58% (inactive).
For the compound `COc1cccc2c1C(=O)c1c(O)c3c(c(O)c1C2=O)C[C@@](O)(C(C)=O)C[C@@H]3O[C@H]1C[C@H](N)[C@H](O)[C@H](C)O1`, the inhibition was -19.5% (inactive).
In the case of `COC(=O)Nc1nc2ccc(C(=O)C3CC3)cc2[nH]1` it was 12.7% (inactive); in that of `Cc1ccc([N+](=O)[O-])[c]2c1[O][Hg]2`, 33.5% (inactive).
Regarding `COc1cc(-c2ccc(=O)[nH]n2)ccc1OC(F)F`, the inhibition was 3.71% (inactive).
As for `CNC(=O)c1cc(Oc2ccc(NC(=O)Nc3ccc(Cl)c(C(F)(F)F)c3)cc2)ccn1`, the inhibition is 64.8%.
As for `CC(C)C[C@H](NC(=O)[C@H](CCc1ccccc1)NC(=O)CN1CCOCC1)C(=O)N[C@@H](Cc1ccccc1)C(=O)N[C@@H](CC(C)C)C(=O)[C@@]1(C)CO1`, the inhibition was -1.98% (inactive).
As to `CCCOc1ccc2nc(NC(=O)OC)[nH]c2c1`, the inhibition is -4.03% (inactive).
In the case of `COC(=O)c1nc(Cl)c(Cl)nc1N`, the inhibition is 1.07% (inactive).
As to `Oc1c(Cl)cc(Cl)c2cccnc12`, the inhibition was 8.07% (inactive).
In the case of `Cc1cc(C2CCCCC2)n(O)c(=O)c1` it was -2.62% (inactive); in that of `CC[C@@H]([C@H](C)O)n1ncn(-c2ccc(N3CCN(c4ccc(OC[C@@H]5CO[C@@](Cn6cncn6)(c6ccc(F)cc6F)C5)cc4)CC3)cc2)c1=O`, -23% (inactive).
In the case of `CCC1=C[C@@H]2CN(C1)Cc1c([nH]c3ccccc13)[C@@](C(=O)OC)(c1cc3c(cc1OC)N(C)[C@H]1[C@@](O)(C(=O)OC)[C@H](OC(C)=O)[C@]4(CC)C=CCN5CC[C@]31[C@@H]54)C2` it was -0.16% (inactive); in that of `O=C(CCCCCCC(=O)Nc1ccccc1)NO`, 4.26% (inactive); in that of `CCCN(CCC)C(=O)C(CCC(=O)OCCCN1CCN(CCOC(=O)Cc2c(C)n(C(=O)c3ccc(Cl)cc3)c3ccc(OC)cc23)CC1)NC(=O)c1ccccc1` (stereo not drawn), -0.47% (inactive).
Consider `CC(=O)Oc1ccc(C2(c3ccc(OC(C)=O)cc3)Oc3ccccc3NC2=O)cc1`, for which the inhibition was -1.96% (inactive).
In the case of `CC(C)C[C@H](NC(=O)[C@H](Cc1ccccc1)NC(=O)c1cnccn1)B(O)O` it was 6.59% (inactive).
As for `CCN(CC)CCNC(=O)c1c(C)[nH]c(/C=C2\C(=O)Nc3ccc(F)cc32)c1C`, the inhibition was 91.7%.
For the compound `C=C(C)[C@H]1Cc2c(ccc3c2O[C@@H]2COc4cc(OC)c(OC)cc4[C@@H]2C3=O)O1`, the inhibition is -6.37% (inactive).
In the case of `COc1cc2nc(N3CCN(C(=O)c4ccco4)CC3)nc(N)c2cc1OC`, the inhibition was 28.5% (inactive).
For `O=C1c2c(O)ccc(O)c2C(=O)c2c(NCCNCCO)ccc(NCCNCCO)c21`, the inhibition was 21.1%.
As for `COC(=O)Nc1nc2ccc(C(=O)c3cccs3)cc2[nH]1`, the inhibition is -23.9% (inactive).
In the case of `COCc1c(C(C)C)nc(C(C)C)c(/C=C/[C@@H](O)C[C@@H](O)CC(=O)O)c1-c1ccc(F)cc1`, the inhibition is 1.86% (inactive).
Turning to `CCC(C)n1ncn(-c2ccc(N3CCN(c4ccc(OC[C@H]5CO[C@](Cn6cncn6)(c6ccc(Cl)cc6Cl)O5)cc4)CC3)cc2)c1=O` (stereo partly drawn), the inhibition is -9.45% (inactive).
For the compound `O=C(NOCC1CC1)c1ccc(F)c(F)c1Nc1ccc(I)cc1Cl`, the inhibition is -1.64% (inactive).
Consider `CC[C@@]1(O)C(=O)OCc2c1cc1n(c2=O)Cc2c-1nc1ccccc1c2/C=N/OC(C)(C)C`, for which the inhibition was -2.02% (inactive).
With `COc1cc([C@@H]2c3cc4c(cc3[C@H](O)[C@H]3COC(=O)[C@H]23)OCO4)cc(OC)c1OC`, the inhibition was 3.8% (inactive).
Consider `O=C(CCl)c1ccc(Cl)cc1Cl`, for which the inhibition is -8.03% (inactive).
As for `COc1c(C)c2c(c(O)c1C/C=C(\C)CCC(=O)OCCN1CCOCC1)C(=O)OC2`, the inhibition is 1.51% (inactive).
In the case of `CCCCCCCCCCCCCC[N+](C)(C)C` it was 3.96% (inactive); in that of `COC(=O)Nc1nc2ccc(S(=O)c3ccccc3)cc2[nH]1` (stereo not drawn), -8.8% (inactive); in that of `CCCCC1C(=O)N(c2ccccc2)N(c2ccc(O)cc2)C1=O` (stereo not drawn), 0.82% (inactive).
Consider `Cn1cnc([N+](=O)[O-])c1Sc1ncnc2nc[nH]c12`, for which the inhibition is -0.72% (inactive).
In the case of `Cc1ccc2nc(N)[nH]c(=O)c2c1Sc1ccncc1`, the inhibition was 50.1%.
Take `COc1ccc2cc1Oc1ccc(cc1)C[C@H]1c3c(cc4c(c3Oc3cc5c(cc3OC)CCN(C)[C@@H]5C2)OCO4)CCN1C`: the inhibition is -3.96% (inactive).
In the case of `Oc1c(Cl)cc(Cl)cc1Sc1cc(Cl)cc(Cl)c1O` it was 40.3% (inactive).
Regarding `Cc1nc(N)nc(N)c1-c1ccc(Cl)c(Cl)c1`, the inhibition is 5.16% (inactive).
For the compound `S=c1nc[nH]c2nc[nH]c12`, the inhibition is 22.2% (inactive).
Take `Cc1cc(O)c2ccccc2c1O`: the inhibition is 39.1% (inactive).
As to `NC(=NCCCCCCN=C(N)/N=C(\N)Nc1ccc(Cl)cc1)/N=C(\N)Nc1ccc(Cl)cc1`, the inhibition was 29.9% (inactive).
Take `CC[C@]1(O)C[C@@H]2CN(CCc3c([nH]c4ccccc34)[C@@](C(=O)OC)(c3cc4c(cc3OC)N(C)[C@H]3[C@@](O)(C(=O)OC)[C@H](OC(C)=O)[C@]5(CC)C=CCN6CC[C@]43[C@@H]65)C2)C1`: the inhibition is -1.14% (inactive).
Consider `COC(=O)[C@H]1[C@H]2C[C@@H]3c4[nH]c5cc(OC)ccc5c4CCN3C[C@H]2C[C@@H](OC(=O)/C=C/c2ccc(O)c(OC)c2)[C@@H]1OC`, for which the inhibition is 7.92% (inactive).
For `CCCCCCNC(=O)n1cc(F)c(=O)[nH]c1=O`, the inhibition was -0.86% (inactive).
With `Oc1c(I)cc(I)c2cccnc12`, the inhibition was 1.27% (inactive).
With `C=CC(=O)Nc1cc2c(Nc3ccc(F)c(Cl)c3)ncnc2cc1OCCCN1CCOCC1`, the inhibition was 10.8% (inactive).
`CNC(=O)c1ccccc1Sc1ccc2c(/C=C/c3ccccn3)n[nH]c2c1`: the inhibition was -17.9% (inactive).
As to `Cc1cc(=O)c2c(O)c3c(O)cc(=O)c4c3c3c(cc(O)c1c23)C(C)(C)C=4O`, the inhibition was 12.5% (inactive).
For the compound `Cc1cc(C)c(/C=C2\C(=O)Nc3ccccc32)[nH]1`, the inhibition was 45.3% (inactive).
For `Cc1nc(Nc2ncc(C(=O)Nc3c(C)cccc3Cl)s2)cc(N2CCN(CCO)CC2)n1`, the inhibition was 5.32% (inactive).
On to `COc1ccc(-c2nc3ccc(C4=NNC(=O)CC4C)cc3[nH]2)cc1` (stereo not drawn), for which the inhibition was -32.5% (inactive).
